Read-outs that look alike come from different tables or passages of the source.
Columns and labels:
Format in all cases: cell-based, human
HTT mRNA [1] = assay: Splicing RT-qPCR assay, HTT canonical (CJ) and alternative (AJ) junction mRNA; conditions: Homo sapiens, Table 3B; for AC50: alternative junction mRNA, read-out: HTT AJ (AC50, increase in AJ mRNA); for IC50: canonical junction mRNA, read-out: HTT CJ (IC50, decrease in CJ mRNA)
Outline: (§1)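 A673 or K562 cells were treated 24 h at 37 °C with an 11-point 3-fold compound dilution series (top 10 uM, DMSO ≤0.25%). Lysates went to one-step RT-qPCR measuring canonical (CJ) and alternative-exon (AJ) junction transcripts, normalized to GAPDH, GUSB or PPIA.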

MYB mRNA = assay: Splicing RT-qPCR assay, MYB canonical (CJ) and alternative (AJ) junction mRNA; conditions: Homo sapiens; for AC50: alternative junction mRNA, read-out: MYB AJ (AC50, increase in AJ mRNA)
Outline: as §1

SMN2 mRNA = assay: Splicing RT-qPCR gene panel, SMN2 canonical junction (CJ) mRNA; conditions: Homo sapiens, Tables 4A/4B, read-out: SMN2 (IC50, decrease in CJ mRNA, gene panel)
Outline: (§2)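 Cells (A673 in DMEM/10% FBS, K562 in IMDM/10% FBS) got compound for 24 h, top dose 10 uM, 11 points, 3-fold steps, DMSO ≤0.25%. Lysates went to RT-qPCR for the canonical exon-exon junction; ΔΔCt against housekeeper and DMSO gave RQ, then percentage response.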

Target C mRNA = assay: Splicing RT-qPCR gene panel, Target C canonical junction (CJ) mRNA; conditions: Homo sapiens, Tables 4A/4B, read-out: Target C (IC50, decrease in CJ mRNA, gene panel)
Outline: as §2

HTT mRNA [2] = assay: Splicing RT-qPCR gene panel, HTT canonical junction (CJ) mRNA; conditions: Homo sapiens, Tables 4A/4B, read-out: HTT (IC50, decrease in CJ mRNA, gene panel)
Outline: as §2

[3] = Table 3B, canonical junction mRNA, RT-qPCR, read-out: MYB CJ (IC50, decrease in CJ mRNA)
[4] = Tables 4A/4B, canonical junction qPCR panel, read-out: MYB (IC50, decrease in CJ mRNA, gene panel)

SMILES	AC50 (HTT mRNA [1]) [µM]	IC50 (HTT mRNA [1]) [µM]	IC50 (MYB mRNA; [3]) [µM]	IC50 (MYB mRNA; [4]) [µM]	AC50 (MYB mRNA; Table 3B, RT-qPCR) [µM]	IC50 (SMN2 mRNA) [µM]	IC50 (Target C mRNA) [µM]	IC50 (HTT mRNA [2]) [µM]
CCn1cc2c(N3CCNCC3)ncc(C(=O)Nc3cc(F)c4nc(C)cn4c3)c2n1 [Compound 950]	0.1 to 1	0.1 to 1	< 0.1	< 0.1	0.1 to 1	< 0.1	> 10	0.1 to 1
CCn1cc2c(N3C[C@@H](C)N[C@@H](C)C3)ncc(C(=O)Nc3cc(F)c4nc(C)cn4c3)c2n1 [Compound 952]	0.1 to 1	0.1 to 1	0.1 to 1	0.1 to 1	0.1 to 1	< 0.1	0.1 to 1	0.1 to 1
CCn1cc2c(N3CCC(NC)C3)ncc(C(=O)Nc3cc(F)c4nc(C)cn4c3)c2n1 (stereo not drawn) [Compound 953]	1 to 10	1 to 10	0.1 to 1	0.1 to 1	0.1 to 1	< 0.1	1 to 10	1 to 10
CCn1cc2c(N3CCN(C)CC3)ncc(C(=O)Nc3cc(F)c4nc(C)cn4c3)c2n1 [Compound 954]	1 to 10	1 to 10	0.1 to 1	0.1 to 1	0.1 to 1	< 0.1	1 to 10	1 to 10
Cc1cn2cc(NC(=O)c3ccc(N4CCNCC4)c4cc(CO)nn34)cc(F)c2n1 [Compound 955]	1 to 10	0.1 to 1	< 0.1	< 0.1	< 0.1	< 0.1	> 10	0.1 to 1
CCNC1CCN(c2ccc(C(=O)Nc3cc(F)c4nc(C)cn4c3)n3nc(CO)cc23)C1 (stereo not drawn) [Compound 956]	0.1 to 1	< 0.1	< 0.1	< 0.1	< 0.1	< 0.1	0.1 to 1	< 0.1
Cc1cn2cc(NC(=O)c3ccc(N4CC[C@@H](NC5CC5)C4)c4nc(C)nn34)cc(F)c2n1 [Compound 958]	1 to 10	0.1 to 1	< 0.1	< 0.1	< 0.1	< 0.1	> 10	0.1 to 1
CCNC1CCN(c2ccc(C(=O)Nc3cc(F)c4nc(C)cn4c3)n3nc(CC)cc23)C1 (stereo not drawn) [Compound 959]	0.1 to 1	0.1 to 1	< 0.1	< 0.1	< 0.1	< 0.1	0.1 to 1	0.1 to 1
CCc1cc2c(N3CCNCC3)ccc(C(=O)Nc3cc(F)c4nc(C)cn4c3)n2n1 [Compound 960]	0.1 to 1	0.1 to 1	0.1 to 1	0.1 to 1	0.1 to 1	< 0.1	0.1 to 1	0.1 to 1
CCNC1CCN(c2ccc(C(=O)Nc3cc(F)c4nc(C)cn4c3)n3nc(C(C)O)cc23)C1 (stereo not drawn) [Compound 961]	0.1 to 1	0.1 to 1	< 0.1	< 0.1	< 0.1	< 0.1	0.1 to 1	0.1 to 1
Cc1cn2cc(NC(=O)c3ccc(N4CC[C@@H](NC5CC5)C4)c4cc(C)nn34)cc(F)c2n1 [Compound 963]	1 to 10	1 to 10	0.1 to 1	0.1 to 1	0.1 to 1	< 0.1	> 10	1 to 10
Cc1cn2cc(NC(=O)c3ccc(N4CC[C@@H](NC5CC5)C4)n4cc(C)nc34)cc(F)c2n1 [Compound 965]	< 0.1	< 0.1	< 0.1	< 0.1	< 0.1	< 0.1	0.1 to 1	< 0.1
Cc1cn2cc(NC(=O)c3cnc(N4CCC(NC5CC5)C4)c4cn(C)nc34)cc(F)c2n1 (stereo not drawn) [Compound 966]	< 0.1	< 0.1	< 0.1	< 0.1	< 0.1	< 0.1	< 0.1	< 0.1
COc1c(NC(=O)c2ccc(N3CC[C@@H](NC4CC4)C3)c3nc(C)nn23)cn2cc(C)nc2c1F [Compound 968]	1 to 10	0.1 to 1	< 0.1	< 0.1	0.1 to 1	< 0.1	1 to 10	0.1 to 1
CCn1cc2c(N3CCC(N)(CC)CC3)ncc(C(=O)Nc3cc(F)c4nc(C)cn4c3)c2n1 [Compound 969]	> 10	1 to 10	< 0.1	< 0.1	< 0.1	< 0.1	1 to 10	1 to 10
Cc1cn2cc(NC(=O)c3ccc(N4C[C@@H](C)N[C@@H](C)C4)c4csnc34)cc(F)c2n1 [Compound 971]	0.1 to 1	0.1 to 1	< 0.1	< 0.1	< 0.1	< 0.1	0.1 to 1	0.1 to 1
Cc1cn2cc(NC(=O)c3ccc(N4CC[C@@H](NC5CC5)C4)c4csnc34)cc(F)c2n1 [Compound 973]	1 to 10	1 to 10	< 0.1	< 0.1	< 0.1	< 0.1	1 to 10	1 to 10
Cc1cn2cc(NC(=O)c3ccc(N4CCC(NC5CC5)CC4)c4csnc34)cc(F)c2n1 [Compound 974]	0.1 to 1	0.1 to 1	< 0.1	< 0.1	< 0.1	< 0.1	0.1 to 1	0.1 to 1
Cc1cn2cc(NC(=O)c3c(F)cc(N4CC[C@@H](NC5CCC5)C4)c4csnc34)cc(F)c2n1 [Compound 976]	1 to 10	0.1 to 1	< 0.1	< 0.1	< 0.1	< 0.1	1 to 10	0.1 to 1
Cc1cn2cc(NC(=O)c3ccc(N4C[C@@H](C)N[C@@H](C)C4)c4nsnc34)cc(F)c2n1 [Compound 978]	0.1 to 1	0.1 to 1	< 0.1	< 0.1	< 0.1	< 0.1	1 to 10	0.1 to 1
Cc1cn2cc(NC(=O)c3ccc(N4CCC(N(C)C)CC4)c4csnc34)cc(F)c2n1 [Compound 979]	0.1 to 1	0.1 to 1	< 0.1	< 0.1	< 0.1	< 0.1	1 to 10	0.1 to 1

Source: patent publication US20250154169A1, “COMPOUNDS AND METHODS FOR MODULATING SPLICING” (REMIX THERAPEUTICS INC., priority 2021, published 2025)
